The values below are quoted from earlier work in patent US8470831B2, “Acrylamido derivatives useful as inhibitors of the mitochondrial permeability transition” (Cogenia SRL, priority 2008, dated 2013).

Data set [1] concerns rat liver mitochondrial membranes.
The conditions of data set [2]: rat, transient focal cerebral ischemia.
For data set [3] the following is noted: patients, one month treatment.
For data set [4] the following is noted: rat, TNF-α-dependent acute inflammatory hepatitis.
For data set [5] the following is noted: mouse, myocardial infarction and reperfusion injury.
The conditions of data set [6]: mdx and Scgd-/- mice.

For the compound `COc1ccc(CN2CCN(CCCSc3cc(C(C)(C)C)c(O)c(C(C)(C)C)c3)CC2)c(OC)c1OC` [Compound S-15176, N-[(3,5-di-tert-butyl-4-hydroxy-1-thiophenyl)]-3-propyl-N′-(2,3,4-trimethoxybenzyl)piperazine], in data set [1], the “mitochondrial membrane depolarization and respiration uncoupling” value is “induces depolarization of the mitochondrial membrane and respiration uncoupling”.
On to `C/C=C/C[C@@H](C)[C@@H](O)[C@H]1C(=O)N[C@@H](CC)C(=O)N(C)CC(=O)N(C)[C@@H]([C@@H](C)CC)C(=O)N[C@@H](C(C)C)C(=O)N(C)[C@@H](CC(C)C)C(=O)N[C@@H](C)C(=O)N[C@H](C)C(=O)N(C)[C@@H](CC(C)C)C(=O)N(C)[C@@H](CC(C)C)C(=O)N(C)[C@@H](C(C)C)C(=O)N1C` [NIM811], for which the protection in data set [2] was 40%.
Cyclosporin A: the mitochondrial function result in data set [3] is recorded as “amelioration of mitochondrial function”. Also, in data set [4], the liver damage result is “strongly reduces liver damage”.
As for `C/C=C/C[C@@H](C)[C@@H](O)[C@H]1C(=O)N[C@@H](CC)C(=O)N(C)[C@H](C)C(=O)N(CC)[C@@H](C(C)C)C(=O)N[C@@H](C(C)C)C(=O)N(C)[C@@H](CC(C)C)C(=O)N[C@@H](C)C(=O)N[C@H](C)C(=O)N(C)[C@@H](CC(C)C)C(=O)N(C)[C@@H](CC(C)C)C(=O)N(C)[C@@H](C(C)C)C(=O)N1C` [Debio-025], in data set [5], the infarct size result is reported as “reduced infarct size”. Further, the “mitochondrial swelling and necrotic disease” value in data set [6] was “reduced mitochondrial swelling and necrotic disease”.
